What is called IC50 is the midpoint of a concentration-inhibition curve.

Results on 20 compounds are retold here after patent US8541449B2, “Substituted isoquinolines and isoquinolinones as Rho kinase inhibitors” (Sanofi, priority 2008, dated 2013).

Bounds are passed on as bounds.

What all share (assay type): biochemical
The target of test [1] is T1, human recombinant ROCK II (Homo sapiens, UniProt O75116).
T1 construct: N-terminal His6-tagged recombinant human ROCK-II residues 11-552; His6 (N); purchased Millipore GmbH, Schwalbach, Germany
T1 sequence (O75116 11-552): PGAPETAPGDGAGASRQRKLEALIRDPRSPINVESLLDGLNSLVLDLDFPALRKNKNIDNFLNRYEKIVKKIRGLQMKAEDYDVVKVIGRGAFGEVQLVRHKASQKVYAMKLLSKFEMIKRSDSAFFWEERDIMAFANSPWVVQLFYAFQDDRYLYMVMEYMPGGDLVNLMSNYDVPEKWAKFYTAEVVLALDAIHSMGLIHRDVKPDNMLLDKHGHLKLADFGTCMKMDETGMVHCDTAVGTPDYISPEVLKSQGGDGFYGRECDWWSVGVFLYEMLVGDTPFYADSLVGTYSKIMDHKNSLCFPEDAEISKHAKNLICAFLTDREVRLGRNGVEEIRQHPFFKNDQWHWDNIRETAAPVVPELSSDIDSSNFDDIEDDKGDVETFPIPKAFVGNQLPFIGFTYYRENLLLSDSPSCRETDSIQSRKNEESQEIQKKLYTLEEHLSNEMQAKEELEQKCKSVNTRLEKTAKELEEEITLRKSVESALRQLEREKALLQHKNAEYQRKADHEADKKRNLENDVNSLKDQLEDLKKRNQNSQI
The test is described as follows: Determination of Rho kinase inhibition (Caliper peptide phosphorylation assay). Conditions: 60 min at 32° C., negative decadal logarithm of the IC50. In a few lines:
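His6-tagged human ROCK II (residues 11-552) phosphorylated a fluorescein-labelled peptide for 60 min at 32° C in Tris-HCl pH 7.4 with MgCl2, DTT and BSA, using 3 μM peptide and 120 μM ATP as diluted stocks. EDTA-stopped; phosphopeptide separated and detected by Caliper mobility shift; IC50 determined.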

In another test the target is T2, recombinant human PKA (Homo sapiens, UniProt P17612).
T2 construct: Active recombinant human PKA (residues 1-351, N-terminal His-tag); His-tag (N); purchased Invitrogen, Karlsruhe, Germany
Put plainly: Determination of Protein Kinase A inhibition (Caliper peptide phosphorylation assay). Conditions: recombinant human PKA versus ROCK II. In a few lines: (§1)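 Full-length His-tagged PKG1-beta (150 ng/ml working) or His-tagged PKA residues 1-351 (30 ng/ml working) was mixed with compound in pH 7.4 Tris/MgCl2/DTT buffer. Fluorescein-peptide substrate and ATP (3 μM and 120 μM working) were then added for 60 min at 32 °C before an EDTA stop. Phosphopeptide was separated electrophoretically on a Caliper instrument to derive IC50.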

Test [2] deals with T3, recombinant human PKG1-beta (Homo sapiens, UniProt Q13976).
T3 construct: Active recombinant human PKG1-beta (full-length, with N-terminal His-tag); His-tag (N); purchased Millipore GmbH, Schwalbach, Germany
T3 sequence (Q13976 1-686 isoform Q13976-2): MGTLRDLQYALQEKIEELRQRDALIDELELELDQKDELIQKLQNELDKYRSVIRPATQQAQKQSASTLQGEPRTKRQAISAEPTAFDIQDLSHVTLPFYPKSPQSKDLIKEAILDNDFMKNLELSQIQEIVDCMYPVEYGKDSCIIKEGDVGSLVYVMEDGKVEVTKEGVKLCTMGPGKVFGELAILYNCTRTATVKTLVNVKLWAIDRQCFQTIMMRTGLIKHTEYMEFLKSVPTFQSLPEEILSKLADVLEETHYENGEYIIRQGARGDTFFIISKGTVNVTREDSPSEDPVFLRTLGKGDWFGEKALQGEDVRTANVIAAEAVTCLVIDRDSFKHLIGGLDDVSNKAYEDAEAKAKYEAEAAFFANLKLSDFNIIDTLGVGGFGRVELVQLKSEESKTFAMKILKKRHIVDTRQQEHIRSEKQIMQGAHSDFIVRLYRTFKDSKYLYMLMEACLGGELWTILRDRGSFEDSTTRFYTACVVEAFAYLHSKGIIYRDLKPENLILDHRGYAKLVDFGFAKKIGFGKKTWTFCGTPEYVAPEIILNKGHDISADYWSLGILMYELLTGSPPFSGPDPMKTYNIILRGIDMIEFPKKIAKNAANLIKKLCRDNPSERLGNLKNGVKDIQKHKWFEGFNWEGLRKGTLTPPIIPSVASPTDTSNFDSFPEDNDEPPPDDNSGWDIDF
The test is described as follows: Determination of Protein Kinase G inhibition (Caliper peptide phosphorylation assay). Conditions: recombinant human PKG1-beta versus ROCK II. In a few lines: as §1

As to `CCC(N)[C@]1(c2cccc(Br)c2)CC[C@@H](Oc2cc3cc[nH]c(=O)c3cc2Cl)CC1` (stereo partly drawn) [Example 16, trans-6-[4-(1-Amino-propyl)-4-(3-bromo-phenyl)-cyclohexyloxy]-7-chloro-2H-iso quinolin-1-one], the pIC50 result in test [1] is “++++++ (7.0≦pIC50<8.0)”. Also, the “Selectivity against PKA” value on recombinant human PKA is above 300. In addition, in test [2], the “Selectivity against PKG” value is listed as above 100.

For the compound `NC(C1CCC(Oc2cc3cc[nH]c(=O)c3cc2Cl)CC1)C1CC1` (single isomer, unassigned) [Example 131, 6-[4-(Amino-cyclopropyl-methyl)-cyclohexyloxy]-7-chloro-2H-isoquinolin-1-one], the IC50 in test [1] was 100 to 1000 nM. The “Selectivity against PKA” value on recombinant human PKA was above 10. Further, the “Selectivity against PKG” value in test [2] was above 10.

On to `CC(N)(c1ccc(F)cc1)C1CCC(Oc2cc3cc[nH]c(=O)c3cc2Cl)CC1` (single isomer, unassigned) [Example 116, 6-{4-[1-Amino-1-(4-fluoro-phenyl)-ethyl]-cyclohexyloxy}-7-chloro-2H-isoquinolin-1-one], for which the IC50 in test [1] is 10 to 100 nM. The “Selectivity against PKA” value on recombinant human PKA is reported as above 100. For the same compound, the “Selectivity against PKG” value in test [2] is on record as above 10.

Consider `CCC(N)[C@]1(c2cc(F)cc(F)c2)CC[C@H](Oc2cc3cc[nH]c(=O)c3cc2Cl)CC1` (stereo partly drawn) [Example 58, cis-6-[4-(1-Amino-propyl)-4-(3,5-difluoro-phenyl)-cyclohexyloxy]-7-chloro-2H-isoquinolin-1-one], for which the pIC50 result in test [1] is “+++++++ (8.0≦pIC50)”. For the same compound, on recombinant human PKA, the “Selectivity against PKA” value was above 1000. Also, the “Selectivity against PKG” value in test [2] was above 100.

In the case of `CCC(N)[C@]1(c2ccc(C(C)C)cc2)CC[C@H](Oc2cc3cc[nH]c(=O)c3cc2Cl)CC1` (stereo partly drawn) [Example 27, cis-6-[4-(1-Amino-propyl)-4-(4-isopropyl-phenyl)-cyclohexyloxy]-7-chloro-2H-iso quinolin-1-one], in test [1], the pIC50 entry is “++++++ (7.0≦pIC50<8.0)”. Further, the “Selectivity against PKA” value on recombinant human PKA is given as above 100. The “Selectivity against PKG” value in test [2] is above 10.

As for `CCC(N)(CC)C1CCC(Oc2cc3cc[nH]c(=O)c3cc2Cl)CC1` (single isomer, unassigned) [Example 122, 6-{-4-[1-Amino-1-ethyl-propyl]-cyclohexyloxy}-7-chloro-2H-isoquinolin-1-one], the IC50 in test [1] was 10 to 100 nM. The “Selectivity against PKA” value on recombinant human PKA is given as above 300. Besides, the “Selectivity against PKG” value in test [2] is given as above 10.

For the compound `CCC(N)[C@]1(c2ccccc2OC)CC[C@H](Oc2cc3cc[nH]c(=O)c3cc2Cl)CC1` (stereo partly drawn) [Example 69, cis-6-[4-(1-Amino-propyl)-4-(2-methoxy-phenyl)-cyclohexyloxy]-7-chloro-2H isoquinolin-1-one], the pIC50 entry in test [1] is reported as “+++++++ (8.0≦pIC50)”. Also, the “Selectivity against PKA” value at recombinant human PKA is listed as above 1000. The “Selectivity against PKG” value in test [2] is given as above 300.

As for `CC(N)(C1CCC(Oc2cc3cc[nH]c(=O)c3cc2Cl)CC1)C1CC1` (single isomer, unassigned) [Example 120, 6-{4-[1-Amino-1-cyclopropyl-ethyl]-cyclohexyloxy}-7-chloro-2H-isoquinolin-1-one], the IC50 in test [1] is 100 to 1000 nM. At recombinant human PKA, the “Selectivity against PKA” value is listed as above 100. Also, the “Selectivity against PKG” value in test [2] is above 10.

On to `CCC(N)[C@]1(c2ccc(F)cc2C)CC[C@H](Oc2cc3cc[nH]c(=O)c3cc2Cl)CC1` (stereo partly drawn) [Example 57, cis-6-[4-(1-Amino-propyl)-4-(4-fluoro-2-methyl-phenyl)cyclohexyloxy]-7-chloro-2H-isoquinolin-1-one], for which the pIC50 result in test [1] was “+++++++ (8.0≦pIC50)”. Moreover, at recombinant human PKA, the “Selectivity against PKA” value was above 1000. Besides, the “Selectivity against PKG” value in test [2] was above 300.

As to `CCC(N)[C@]1(c2cccc(OC)c2)CC[C@@H](Oc2cc3cc[nH]c(=O)c3cc2Cl)CC1` (stereo partly drawn) [Example 17, trans-6-[4-(1-Amino-propyl)-4-(3-methoxy-phenyl)-cyclohexyloxy]-7-chloro-2H-iso quinolin-1-one], the pIC50 result in test [1] is listed as “++++++ (7.0≦pIC50<8.0)”. On recombinant human PKA, the “Selectivity against PKA” value is reported as above 300. Moreover, the “Selectivity against PKG” value in test [2] is above 100.

Consider `CCC(N)[C@]1(c2ccc(Br)cc2)CC[C@H](Oc2cc3cc[nH]c(=O)c3cc2Cl)CC1` (stereo partly drawn) [Example 6, cis-6-[4-(1-Amin-propyl)-4-(4-bromo-phenyl)-cyclohexyloxy]-7-chloro-2H-isoquinolin-1-one], for which the pIC50 entry in test [1] is given as “+++++++ (8.0≦pIC50)”. At recombinant human PKA, the “Selectivity against PKA” value was above 1000. The “Selectivity against PKG” value in test [2] is reported as above 300.

With `CCC(N)[C@]1(c2cccc(OC(F)(F)F)c2)CC[C@H](Oc2cc3cc[nH]c(=O)c3cc2Cl)CC1` (stereo partly drawn) [Example 84, cis-6-[4-(1-Amino-propyl)-4-(3-trifluoromethoxy-phenyl)-cyclohexyloxy]-7-chloro-2H-iso quinolin-1-one], the pIC50 entry in test [1] is “+++++ (6.0≦pIC50<7.0)”. The “Selectivity against PKA” value at recombinant human PKA is above 100. For the same compound, the “Selectivity against PKG” value in test [2] was above 10.

With `CC(N)(c1ccccc1)C1CCC(Oc2cc3cc[nH]c(=O)c3cc2Cl)CC1` (single isomer, unassigned) [Example 123, 6-{4-[1-Amino-1-phenyl-ethyl]-cyclohexyloxy}-7-chloro-2H-isoquinolin-1-one], in test [1], the IC50 is 10 to 100 nM. The “Selectivity against PKA” value at recombinant human PKA was above 100. The “Selectivity against PKG” value in test [2] is above 10.

With `CC(C)C(N)[C@]1(c2ccccc2)CC[C@@H](Oc2cc3cc[nH]c(=O)c3cc2Cl)CC1` (stereo partly drawn) [Example 19, trans-6-[4-(1-Amino-2-methyl-propyl)-4-phenyl-cyclohexyloxy]-7-chloro-2H-iso quinolin-1-one], in test [1], the pIC50 result is on record as “+++++ (6.0≦pIC50<7.0)”. Further, on recombinant human PKA, the “Selectivity against PKA” value is given as above 100. In addition, the “Selectivity against PKG” value in test [2] is above 100.

With `CCCC(N)[C@]1(c2ccccc2)CC[C@H](Oc2cc3cc[nH]c(=O)c3cc2Cl)CC1` (stereo partly drawn) [Example 4, cis-6-[4-(1-Amino-butyl)-4-phenyl-cyclohexyloxy]-7-chloro-2H-isoquinolin-1-one], the pIC50 entry in test [1] is on record as “+++++++ (8.0≦pIC50)”. Also, the “Selectivity against PKA” value on recombinant human PKA is on record as above 1000. Moreover, the “Selectivity against PKG” value in test [2] was above 100.

Regarding `CCC(N)C1CCC(Oc2cc3cc[nH]c(=O)c3cc2Cl)CC1` (single isomer, unassigned) [Example 129, 6-[4-(1-Amino-propyl)-cyclohexyoxy]-7-chloro-2H-isoquinolin-1-one], the IC50 in test [1] is 10 to 100 nM. Further, the “Selectivity against PKA” value on recombinant human PKA was above 100. Further, the “Selectivity against PKG” value in test [2] was above 10.

In the case of `CCC(N)[C@]1(c2ccccc2F)CC[C@H](Oc2cc3cc[nH]c(=O)c3cc2Cl)CC1` (stereo partly drawn) [Example 9, cis-6-[4-(1-Amino-propyl)-4-(2-fluoro-phenyl)-cyclohexyloxy]-7-chloro-2H-isoquinolin-1-one], in test [1], the pIC50 result is “+++++++ (8.0≦pIC50)”. Also, the “Selectivity against PKA” value at recombinant human PKA is on record as above 1000. Besides, the “Selectivity against PKG” value in test [2] is on record as above 100.

For the compound `NC(c1ccccc1)C1(c2ccccc2)CCC(Oc2cc3cc[nH]c(=O)c3cc2Cl)CC1` (single isomer, unassigned) [Example 41], the IC50 in test [1] is 100 to 1000 nM. Further, on recombinant human PKA, the “Selectivity against PKA” value is above 10. Besides, the “Selectivity against PKG” value in test [2] is reported as above 10.

On to `CC(N)[C@]1(c2ccc(F)cc2)CC[C@@H](Oc2cc3cc[nH]c(=O)c3cc2Cl)CC1` (stereo partly drawn) [Example 13, trans-6-[4-(1-Amino-ethyl)-4-(4-fluoro-phenyl)-cyclohexyloxy]-7-chloro-2H-isoquinolin-1-one], for which, in test [1], the pIC50 result was “++++++ (7.0≦pIC50<8.0)”. In addition, at recombinant human PKA, the “Selectivity against PKA” value is reported as above 300. For the same compound, the “Selectivity against PKG” value in test [2] is above 100.

With `Cc1ccc(C(N)C2CCC(Oc3cc4cc[nH]c(=O)c4cc3Cl)CC2)cc1` (single isomer, unassigned) [Example 38, 6-[4-(Amino-p-tolyl-methyl)-cyclohexyloxy]-7-chloro-2H-isoquinolin-1-one], the IC50 in test [1] is at most 10 nM. The “Selectivity against PKA” value on recombinant human PKA is above 1000. Besides, in test [2], the “Selectivity against PKG” value is above 300.
